Data published in PMC3634413, “Synthesis of Thieno[2,3-b]thiophene Containing Bis-Heterocycles-Novel Pharmacophores” (International Journal of Molecular Sciences, 2013).
Where two headings read alike, the source gives them in different places.

Legend:
[1] = target: T1, α-Glucosidase from Saccharomyces cerevisiae (Saccharomyces cerevisiae, UniProt P53341); assay: In vitro α-glucosidase inhibition assay; type: biochemical; conditions: pH 6.8, substrate p-nitrophenyl-α-D-glucopyranoside, NA = not active, failed to show 50% or more inhibition at 500 μM or more; for IC50: read-out: IC50 ± SEM, α-Glucosidase Inhibition
T1 construct: purchased Sigma Aldrich G0660-750UN
Experimental: α-Glucosidase inhibition assay was performed spectrophotometrically. α-Glucosidase from Saccharomyces cerevisiae (G0660-750UN, Sigma Aldrich), was dissolved in phosphate buffer (pH 6.8, 50 mM). Test compounds were dissolved in 70% DMSO. In 96-well plates, 20 μL of test sample, 20 μL of enzyme and 135 μL of buffer were added and incubated for 15 min at 37 °C. After incubation, 25 μL of p-nitrophenyl-α-D-glucopyranoside (0.7 mM, Sigma Aldrich) was added and change in absorbance was monitored for 30 min at 400 nm. Test compound was replaced with DMSO (7.5% final) in control. Acarbose (Sigma Aldrich) was used as a standard inhibitor [25, 26].
(§1) All reactions were performed in triplicate in a final volume of 200 μL. The results were processed using SoftMax Pro 4.8 software (Molecular Devices, Sunnyvale, CA, USA) and then using MS Excel. The percentage of inhibition was calculated by the following formula:
(§2) % Inhibition=100-(OD of test sample/OD of the control)×100

[2] = DPPH radical scavenging assay (in vitro antioxidant activity); conditions: DPPH 300 μM, 30 min at 37 °C, NA = not active, failed to show 50% or more inhibition at 500 μM or more; for IC50: read-out: IC50 ± SEM, DPPH Radical Scavenging Assay
Experimental: Test samples were allowed to react with stable free radical, 1,1-diphenyl-2-picrylhydrazyl radical (DPPH, Wako Chemicals, Shanghai, China) for half an hour at 37 °C. Various concentrations of test samples (prepared in DMSO) were incubated with DPPH (300 μM; prepared in ethanol). After incubation, decrease in absorption was measured at 515 nm by using a microplate reader (SpectraMax plus 384). Percentage radical scavenging activity (% RSA) of samples was determined in comparison with a DMSO-treated control group. Percentage of radical scavenging activity was calculated by using the formula given in statistical analysis section.
as §1, §2

[3] = tested on: PC-3 cell line; assay: Anticancer (cytotoxic) activity, MTT colorimetric assay; type: cell-based; conditions: compounds 1–30 μM, n = 3, read-out: IC50 ± SEM, Anticancer Activity (PC-3 Cell line)
Experimental: Cytotoxic activity of compounds was evaluated in 96-well flat-bottomed microplates by using the standard MTT (3-[4,5-dimethylthiazole-2-yl]-2,5-diphenyl-tetrazolium bromide, MP) colorimetric assay. For this purpose, PC3 cells (Prostrate Cancer) were cultured in Dulbecco’s Modified Eagle Medium, supplemented with 10% of fetal bovine serum (FBS, PAA), 100 IU/mL of penicillin and 100 μg/mL of streptomycin in 75 cm^2 flasks, and kept in 5% CO2 incubator at 37 °C. Exponentially growing cells were harvested, counted with a haemocytometer, and diluted with a particular medium with 5% FBS. Cell culture with the concentration of 1 × 10^5 cells/mL was prepared and introduced (100 μL/well) into 96-well plates. After overnight incubation, medium was removed and 200 μL of fresh medium was added with different concentrations of compounds (1–30 μM). Stock solution, 20 mM of compounds were prepared in 100% DMSO, and the final concentration of DMSO at 30 μM is 0.15%. After 48 h, 200 μL MTT (0.5 mg/mL) was added to each well and incubated further for four hours. Subsequently, 100 μL of DMSO was added to each well. The extent of MTT reduction to formazan within cells was calculated by measuring the absorbance at 570 nm, using a microplate reader (SpectraMax plus, Molecular Devices, Sunnyvale, CA, USA). The cytotoxicity was recorded as concentration causing 50% growth inhibition (IC50) for PC3 cells. The percent inhibition was calculated by using the following formula:
% Inhibition=100-((mean of OD of test compound-mean of OD of negative control)/(mean of OD of positive control-mean of OD of negative control)×100).
The results (% inhibition) were processed by using SoftMax Pro software (Molecular Device, USA).

[4] = target: T2, β-glucuronidase (Escherichia coli, UniProt P05804); assay: In vitro β-glucuronidase inhibition assay; type: biochemical; conditions: substrate p-nitrophenyl-β-D-glucuronide, 37 °C; NA = not active, failed to show 50% or more inhibition at 500 μM or more; read-out: IC50 ± SEM, β-Glucuronidase Inhibition
T2 construct: purchased Sigma Aldrich G7396-25KU
Experimental: Results are presented here as means ± standard error mean from triplicate (n = 3) observation. IC50 Values were determined by using EZ-FIT, enzyme kinetics software by Perrella Scientific, Inc., USA.
β-Glucuronidase inhibitory activity was determined by the spectrophotometric method by measuring the absorbance at 405 nm of p-nitrophenol formed from the substrate p-nitrophenyl-β-D-glucuronide N1627-250 mg (Sigma Aldrich Co., 3050 spruce street, St. Louis, MO, USA). The total reaction volume was 250 μL. The compound (5 μL) was dissolved in DMSO (100%), which became 2% in the ultimate assay (250 μL) and similar conditions were used for standard (D-saccharic acid 1,4-lactone, Sigma Aldrich Co.). The reaction mixture contained 185 μL of 0.1 M acetate buffer, 5 μL of test compound solution, 10 μL of (1U) enzyme solution (G7396-25KU, Sigma Aldrich) was incubated at 37 °C for 30 min. The plates were read on a multiplate reader (SpectraMax plus 384) at 405 nm after the addition of 50 μL of 0.4 mM p-nitrophenyl-β-D-glucuronide. All assays were performed in triplicate. IC50 Values were calculated by using EZ-Fit software (Perrella Scientific Inc., Amherst, MA, USA). These values are the mean of three independent readings.

T2 sequence (P05804 whole entry): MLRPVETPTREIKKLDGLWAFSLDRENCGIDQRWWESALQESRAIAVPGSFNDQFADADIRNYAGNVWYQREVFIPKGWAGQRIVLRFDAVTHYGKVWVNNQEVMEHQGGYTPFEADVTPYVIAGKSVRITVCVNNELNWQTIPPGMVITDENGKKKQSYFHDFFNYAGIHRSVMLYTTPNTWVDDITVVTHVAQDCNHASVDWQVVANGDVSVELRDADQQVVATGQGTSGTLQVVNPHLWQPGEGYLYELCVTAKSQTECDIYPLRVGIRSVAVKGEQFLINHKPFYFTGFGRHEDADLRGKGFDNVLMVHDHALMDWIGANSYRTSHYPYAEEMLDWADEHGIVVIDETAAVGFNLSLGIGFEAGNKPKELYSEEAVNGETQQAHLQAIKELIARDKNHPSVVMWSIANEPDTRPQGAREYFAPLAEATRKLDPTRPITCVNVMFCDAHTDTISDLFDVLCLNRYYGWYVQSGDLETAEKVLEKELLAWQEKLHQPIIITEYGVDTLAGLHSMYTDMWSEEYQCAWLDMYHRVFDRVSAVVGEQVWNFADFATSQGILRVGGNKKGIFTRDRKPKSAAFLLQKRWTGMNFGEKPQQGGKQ
T1 sequence (P53341 whole entry): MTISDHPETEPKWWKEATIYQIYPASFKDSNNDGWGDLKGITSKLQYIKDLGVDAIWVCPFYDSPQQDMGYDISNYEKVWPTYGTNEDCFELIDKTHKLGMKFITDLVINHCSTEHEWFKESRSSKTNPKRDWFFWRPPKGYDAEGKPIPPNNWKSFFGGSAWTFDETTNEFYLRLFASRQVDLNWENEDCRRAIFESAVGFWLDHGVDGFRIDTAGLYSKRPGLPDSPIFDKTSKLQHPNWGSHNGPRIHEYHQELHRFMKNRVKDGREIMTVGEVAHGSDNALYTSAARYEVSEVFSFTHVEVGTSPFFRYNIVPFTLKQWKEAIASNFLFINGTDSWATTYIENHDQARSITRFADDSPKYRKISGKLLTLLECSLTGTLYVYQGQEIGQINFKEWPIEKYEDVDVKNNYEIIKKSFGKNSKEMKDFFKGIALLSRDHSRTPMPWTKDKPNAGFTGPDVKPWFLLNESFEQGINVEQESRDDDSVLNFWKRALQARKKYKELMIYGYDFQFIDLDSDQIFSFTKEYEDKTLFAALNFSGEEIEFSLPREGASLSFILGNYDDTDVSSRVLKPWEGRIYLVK

| Molecule | melting point | IC50 ([3]; Homo sapiens, PC-3, 48 h) | IC50 [4] | also measured |
| --- | --- | --- | --- | --- |
| Cc1c(-c2cc[nH]n2)sc2sc(-c3cc[nH]n3)c(-c3ccccc3)c12 [Compound 5a, 3,3′-(3-Methyl-4-Phenylthieno[2,3-b]Thiophene-2,5-Diyl)Bis(1H-Pyrazole)] | 177 °C | 22.5 ± 0.1 µM | 2.3 ± 0.4 µM | IC50 [1]: 22 ± 0.3 µM; IC50 ± SEM, DPPH Radical Scavenging Assay [2]: no antioxidant activity |
| Cc1c(C(=O)C=CN(C)C)sc2sc(C(=O)C=CN(C)C)c(-c3ccccc3)c12 [Compound 3, 1,1′-(3-Methyl-4-Phenylthieno[2,3-b]Thiophene-2,5-Diyl)Bis(3-(Dimethylamino)Prop-2-En-1-One)] | 250 °C | > 30 µM | – | – |
| CC(=O)N[C@@H](CS)C(=O)O [N-Acetylcysteine, reference compound] | – | – | – | IC50 [2]: 106 ± 1.1 µM |
| 3,3′-(3-Methyl-4-Phenylthieno[2,3-b]Thiophene-2,5-Diyl)Bis(1-Phenyl-1H-Pyrazole) [Compound 5b] | – | – | 8.7 ± 0.1 µM | IC50 [1]: 58.4 ± 1.2 µM; IC50 [2]: 165 ± 2.8 µM; IC50 ([3]; 48 h): > 30 µM |
| O=C(O)[C@@H](O)[C@H]1OC(=O)[C@H](O)[C@H]1O [D-Saccharic acid 1,4-lactone, D-saccharic acid 1,4-lactone, reference compound] | – | – | 45.8 µM | – |
| COc1cccc2c1C(=O)c1c(O)c3c(c(O)c1C2=O)C[C@@](O)(C(=O)CO)C[C@@H]3O[C@H]1C[C@H](N)[C@H](O)[C@H](C)O1 [Doxorubicin, reference compound] | – | 0.91 ± 0.1 µM | – | – |
| Cc1c(-c2ccnc3ncnn23)sc2sc(-c3ccnc4ncnn34)c(-c3ccccc3)c12 [Compound 6, 7,7′-(3-Methyl-4-Phenylthieno[2,3-b]Thiophene-2,5-Diyl)Di-[1,2, 4]Triazolo[1,5-a]Pyrimidine] | 245 °C | > 30 µM | – | – |
| Cc1c(-c2ccnc3nc4ccccc4n23)sc2sc(-c3ccnc4nc5ccccc5n34)c(-c3ccccc3)c12 [Compound 7, 2,2′-(3-Methyl-4-Phenylthieno[2,3-b]Thiophene-2,5-Diyl)Bis(Benzo[4, 5]Imidazo[1,2-a] Pyrimidine)] | 245 °C | > 30 µM | – | – |
| Cc1c(-c2ccnc(S)n2)sc2sc(-c3ccnc(S)n3)c(-c3ccccc3)c12 [Compound 4b, 4,4′-(3-Methyl-4-Phenylthieno[2,3-b]Thiophene-2,5-Diyl)Dipyrimidin-2-Thiol] | 247 °C | > 30 µM | 1.3 ± 0.2 µM | IC50 ± SEM, α-Glucosidase Inhibition [1]: inactive; IC50 ± SEM, DPPH Radical Scavenging Assay [2]: inactive |

Second part, led by results:

| melting point | Molecule | IC50 ([3]; Homo sapiens, PC-3, 48 h) | IC50 [4] | also measured |
| --- | --- | --- | --- | --- |
| 248 °C | Cc1c(-c2ccnc(O)n2)sc2sc(-c3ccnc(O)n3)c(-c3ccccc3)c12 [Compound 4a, 4,4′-(3-Methyl-4-Phenylthieno[2,3-b]Thiophene-2,5-Diyl)Dipyrimidin-2-Ol] | > 30 µM | – | – |
| 246 °C | Cc1c(-c2ccnc(N)n2)sc2sc(-c3ccnc(N)n3)c(-c3ccccc3)c12 [Compound 4c, 4,4′-(3-Methyl-4-Phenylthieno[2,3-b]Thiophene-2,5-Diyl)Dipyrimidin-2-Amine] | – | – | – |
